Drawing on patent US9273057B2 (Bristol-Myers Squibb Company, priority 2012, dated 2016), this text covers IC50 for 27 compounds.

The target in the test is CK2A1 (CK2α/β) (Homo sapiens, UniProt P68400). Description: CK2 kinase assay, CK2A1 (CK2α/β). It counts as biochemical. As to conditions: Table A; read-out: CK2A1 (CK2α/β) (IC50).
Chain of CK2A1 (CK2α/β) (P68400 whole entry, species assumed): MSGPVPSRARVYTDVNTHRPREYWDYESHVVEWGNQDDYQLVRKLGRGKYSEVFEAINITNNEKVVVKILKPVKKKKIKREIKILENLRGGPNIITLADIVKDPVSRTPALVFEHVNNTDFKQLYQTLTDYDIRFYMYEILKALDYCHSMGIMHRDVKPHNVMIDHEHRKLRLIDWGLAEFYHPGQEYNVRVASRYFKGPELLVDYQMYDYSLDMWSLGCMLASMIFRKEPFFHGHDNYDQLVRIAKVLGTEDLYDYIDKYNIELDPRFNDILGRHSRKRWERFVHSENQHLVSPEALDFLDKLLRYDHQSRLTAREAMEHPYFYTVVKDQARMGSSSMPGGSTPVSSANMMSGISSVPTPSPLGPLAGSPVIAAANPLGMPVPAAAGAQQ
Chain of CK2A1 (CK2α/β) (P67870 whole entry partner, species assumed): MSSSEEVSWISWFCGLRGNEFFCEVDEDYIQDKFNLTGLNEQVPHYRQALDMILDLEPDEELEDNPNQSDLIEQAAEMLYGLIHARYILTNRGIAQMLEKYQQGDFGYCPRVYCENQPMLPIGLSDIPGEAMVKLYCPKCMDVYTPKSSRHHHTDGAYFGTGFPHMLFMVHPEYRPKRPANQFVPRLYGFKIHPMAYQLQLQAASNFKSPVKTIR
For `N#Cc1cc(Nc2nc(NC3CC3)c3ncc(C#N)n3n2)c(Cl)c(N2CCN(CC3COCCO3)CC2)c1` (stereo not drawn) [Example 532, 2-((3-(4-((1,4-dioxan-2-yl)methyl)piperazin-1-yl)-2-chloro-5-cyanophenyl)amino)-4-(cyclopropylamino)imidazo[2,1-f][1,2,4]triazine-7-carbonitrile], the IC50 worked out at 0.85 nM.

With `N#Cc1cc(Nc2nc(NC3CC3)c3ncc(C#N)n3n2)c(Cl)c(N2CCN(C(=O)OCC3(CO)COC3)CC2)c1` [Example 533, (3-(hydroxymethyl)oxetan-3-yl)methyl 4-(2-chloro-5-cyano-3-((7-cyano-4-(cyclopropylamino)imidazo[2,1-f][1,2,4]triazin-2-yl)amino)phenyl)piperazine-1-carboxylate], the IC50 came to 0.43 nM.

Take `N#Cc1cc(Nc2nc(NC3CC3)c3ncc(C#N)n3n2)c(Cl)c(N2CCN(C(=O)OCC3CCCO3)CC2)c1` (stereo not drawn) [Example 534, (tetrahydrofuran-2-yl)methyl 4-(2-chloro-5-cyano-3-((7-cyano-4-(cyclopropylamino)imidazo[2,1-f][1,2,4]triazin-2-yl)amino)phenyl)piperazine-1-carboxylate]: the IC50 amounted to 0.51 nM.

Regarding `CC(C)(O)CC1(N2CCN(c3cc(C#N)cc(Nc4nc(NC5CC5)c5ncc(C#N)n5n4)c3Cl)CC2)COC1` [Example 536, 2-((2-chloro-5-cyano-3-(4-(3-(2-hydroxy-2-methylpropyl)oxetan-3-yl)piperazin-1-yl)phenyl)amino)-4-(cyclopropylamino)imidazo[2,1-f][1,2,4]triazine-7-carbonitrile], the IC50 came out at 1.55 nM.

Consider `N#Cc1cc(Nc2nc(NC3CC3)c3ncc(C#N)n3n2)c(Cl)c(N2CCN(C3(CCO)COC3)CC2)c1` [Example 537, 2-((2-chloro-5-cyano-3-(4-(3-(2-hydroxyethyl)oxetan-3-yl)piperazin-1-yl)phenyl)amino)-4-(cyclopropylamino)imidazo[2,1-f][1,2,4]triazine-7-carbonitrile], for which the IC50 amounted to 1.04 nM.

Turning to `N#Cc1cc(Nc2nc(NC3CC3)c3ncc(C#N)n3n2)c(Cl)c(N2CCN(C3(CO)COC3)CC2)c1` [Example 538, 2-((2-chloro-5-cyano-3-(4-(3-(hydroxymethyl)oxetan-3-yl)piperazin-1-yl)phenyl)amino)-4-(cyclopropylamino)imidazo[2,1-f][1,2,4]triazine-7-carbonitrile], the IC50 came to 2.1 nM.

On to `N#Cc1cc(Nc2nc(NC3CC3)c3ncc(C#N)n3n2)c(Cl)c(N2CCN(C(CO)CO)CC2)c1` [Example 539, 2-((2-chloro-5-cyano-3-(4-(1,3-dihydroxypropan-2-yl)piperazin-1-yl)phenyl)amino)-4-(cyclopropylamino)imidazo[2,1-f][1,2,4]triazine-7-carbonitrile], for which the IC50 worked out at 0.93 nM.

Regarding `CC(=O)NCC1(N2CCN(c3cc(C#N)cc(Nc4nc(NC5CC5)c5ncc(C#N)n5n4)c3Cl)CC2)COC1` [Example 540, N-((3-(4-(2-chloro-5-cyano-3-((7-cyano-4-(cyclopropylamino)imidazo[2,1-f][1,2,4]triazin-2-yl)amino)phenyl)piperazin-1-yl)oxetan-3-yl)methyl)acetamide], the IC50 is 6.02 nM.

In the case of `CC(=O)N1CCN(C2CN(c3cc(C#N)cc(Nc4nc(NC5CC5)c5ncc(C#N)n5n4)c3Cl)C2)CC1` [Example 541, 2-((3-(3-(4-acetylpiperazin-1-yl)azetidin-1-yl)-2-chloro-5-cyanophenyl)amino)-4-(cyclopropylamino)imidazo[2,1-f][1,2,4]triazine-7-carbonitrile], the IC50 amounted to 0.57 nM.

Regarding `CCNc1nc(Nc2cc(C#N)cc(N3CCN(C4(C)COC4)CC3)c2Cl)nn2c(C#N)cnc12` [Example 542, 2-((2-chloro-5-cyano-3-(4-(3-methyloxetan-3-yl)piperazin-1-yl)phenyl)amino)-4-(ethylamino)imidazo[2,1-f][1,2,4]triazine-7-carbonitrile], the IC50 turned out to be 1.35 nM.

For `CCNc1nc(Nc2cc(C#N)cc(N3CCN(C4(CCO)COC4)CC3)c2Cl)nn2c(C#N)cnc12` [Example 543, 2-((2-chloro-5-cyano-3-(4-(3-(2-hydroxyethyl)oxetan-3-yl)piperazin-1-yl)phenyl)amino)-4-(ethylamino)imidazo[2,1-f][1,2,4]triazine-7-carbonitrile], the IC50 was 1.1 nM.

Take `CCOC(=O)C1CCN(c2cc(C(F)F)cc(Nc3nc(NC4CC4)c4ncc(C#N)n4n3)c2Cl)CC1` [Example 544, ethyl 1-(2-chloro-3-((7-cyano-4-(cyclopropylamino)imidazo[2,1-f][1,2,4]triazin-2-yl)amino)-5-(difluoromethyl)phenyl)piperidine-4-carboxylate]: the IC50 amounted to 28.2 nM.

Take `N#Cc1cnc2c(NC3CC3)nc(Nc3cc(C(F)F)cc(N4CCC(C(=O)O)CC4)c3Cl)nn12` [Example 545, 1-(2-chloro-3-((7-cyano-4-(cyclopropylamino)imidazo[2,1-f][1,2,4]triazin-2-yl)amino)-5-(difluoromethyl)phenyl)piperidine-4-carboxylic acid]: the IC50 came to 1.55 nM.

Regarding `CN1CCN(C(=O)C2CCN(c3cc(C(F)F)cc(Nc4nc(NC5CC5)c5ncc(C#N)n5n4)c3Cl)CC2)CC1` [Example 546, 2-((2-chloro-5-(difluoromethyl)-3-(4-(4-methylpiperazine-1-carbonyl)piperidin-1-yl)phenyl)amino)-4-(cyclopropylamino)imidazo[2,1-f][1,2,4]triazine-7-carbonitrile], the IC50 was 2.7 nM.

Consider `N#Cc1cnc2c(NC3CC3)nc(Nc3cc(C(F)F)cc(N4CCC(C(=O)NC5COC5)CC4)c3Cl)nn12` [Example 547, 1-(2-chloro-3-((7-cyano-4-(cyclopropylamino)imidazo[2,1-f][1,2,4]triazin-2-yl)amino)-5-(difluoromethyl)phenyl)-N-(oxetan-3-yl)piperidine-4-carboxamide], for which the IC50 stood at 2.3 nM.

Take `N#Cc1cc(Nc2nc(NC3CC3)c3ncc(C#N)n3n2)c(F)c(N2CCN(C3COC3)CC2)c1` [Example 548, 2-((5-cyano-2-fluoro-3-(4-(oxetan-3-yl)piperazin-1-yl)phenyl)amino)-4-(cyclopropylamino)imidazo[2,1-f][1,2,4]triazine-7-carbonitrile]: the IC50 came to 0.8 nM.

`N#Cc1cc(Nc2nc(NC3CC3)c3ncc(C#N)n3n2)c(F)c(N2CCN(CC(O)CF)CC2)c1` (stereo not drawn) [Example 549, 2-((5-cyano-2-fluoro-3-(4-(3-fluoro-2-hydroxypropyl)piperazin-1-yl)phenyl)amino)-4-(cyclopropylamino)imidazo[2,1-f][1,2,4]triazine-7-carbonitrile]: the IC50 is 1.25 nM.

Consider `N#Cc1cc(Nc2nc(NC3CC3)c3ncc(C#N)n3n2)c(F)c(N2CCN(C3CNC3)CC2)c1` [Example 550, 2-((3-(4-(azetidin-3-yl)piperazin-1-yl)-5-cyano-2-fluorophenyl)amino)-4-(cyclopropylamino)imidazo[2,1-f][1,2,4]triazine-7-carbonitrile], for which the IC50 was 0.83 nM.

For the compound `CC(=O)N1CC(N2CCN(c3cc(C#N)cc(Nc4nc(NC5CC5)c5ncc(C#N)n5n4)c3F)CC2)C1` [Example 551, 2-((3-(4-(1-acetylazetidin-3-yl)piperazin-1-yl)-5-cyano-2-fluorophenyl)amino)-4-(cyclopropylamino)imidazo[2,1-f][1,2,4]triazine-7-carbonitrile], the IC50 was 1.23 nM.

`N#Cc1cc(Nc2nc(NC3CC3)c3ncc(C#N)n3n2)c(F)c(N2CCN(C3CCOC3)CC2)c1` (stereo not drawn) [Example 554, 2-((5-cyano-2-fluoro-3-(4-(tetrahydrofuran-3-yl)piperazin-1-yl)phenyl)amino)-4-(cyclopropylamino)imidazo[2,1-f][1,2,4]triazine-7-carbonitrile]: the IC50 turned out to be 5.03 nM.

Regarding `N#Cc1cc(Nc2nc(NC3CC3)c3ncc(C#N)n3n2)c(F)c(N2CCN(C3(C#N)COC3)CC2)c1` [Example 555, 2-((5-cyano-3-(4-(3-cyanooxetan-3-yl)piperazin-1-yl)-2-fluorophenyl)amino)-4-(cyclopropylamino)imidazo[2,1-f][1,2,4]triazine-7-carbonitrile], the IC50 amounted to 1.23 nM.

On to `CCNc1nc(Nc2cc(C#N)cc(N3CCN(C4COC4)CC3)c2F)nn2c(C#N)cnc12` [Example 556, 2-((5-cyano-2-fluoro-3-(4-(oxetan-3-yl)piperazin-1-yl)phenyl)amino)-4-(ethylamino)imidazo[2,1-f][1,2,4]triazine-7-carbonitrile], for which the IC50 turned out to be 3.68 nM.

Take `N#Cc1cnc2c(NC3CC3)nc(Nc3cc(OC(F)F)cc(N4CCN(C5COC5)CC4)c3Cl)nn12` [Example 557, 2-((2-chloro-5-(difluoromethoxy)-3-(4-(oxetan-3-yl)piperazin-1-yl)phenyl)amino)-4-(cyclopropylamino)imidazo[2,1-f][1,2,4]triazine-7-carbonitrile]: the IC50 worked out at 2.05 nM.

Consider `N#Cc1cnc2c(NC3CC3)nc(Nc3cc(OC(F)F)cc(N4CCNCC4)c3Cl)nn12` [Example 558, 2-((2-chloro-5-(difluoromethoxy)-3-(piperazin-1-yl)phenyl)amino)-4-(cyclopropylamino)imidazo[2,1-f][1,2,4]triazine-7-carbonitrile], for which the IC50 worked out at 5.37 nM.

`CC(=O)N1CC(N2CCN(c3cc(OC(F)F)cc(Nc4nc(NC5CC5)c5ncc(C#N)n5n4)c3Cl)CC2)C1` [Example 559, 2-((3-(4-(1-acetylazetidin-3-yl)piperazin-1-yl)-2-chloro-5-(difluoromethoxy)phenyl)amino)-4-(cyclopropylamino)imidazo[2,1-f][1,2,4]triazine-7-carbonitrile]: the IC50 is 2.37 nM.

`N#Cc1cnc2c(NC3CC3)nc(Nc3cc(OC(F)F)cc(N4CCN(C5CNC5)CC4)c3Cl)nn12` [Example 560, 2-((3-(4-(azetidin-3-yl)piperazin-1-yl)-2-chloro-5-(difluoromethoxy)phenyl)amino)-4-(cyclopropylamino)imidazo[2,1-f][1,2,4]triazine-7-carbonitrile]: the IC50 is 1.15 nM.

In the case of `CC1(N2CCN(c3cc(OC(F)F)cc(Nc4nc(NC5CC5)c5ncc(C#N)n5n4)c3Cl)CC2)COC1` [Example 561, 2-((2-chloro-5-(difluoromethoxy)-3-(4-(3-methyloxetan-3-yl)piperazin-1-yl)phenyl)amino)-4-(cyclopropylamino)imidazo[2,1-f][1,2,4]triazine-7-carbonitrile], the IC50 turned out to be 2.08 nM.
